Experimental data: paper PMC10838953

Key:
[1] = system: tumor slices of clear cell renal carcinoma (786-O-luc xenograft); details: 10 μM CX-4945, 5 μM AB668
[2] = biological target: BLK (Homo sapiens, UniProt P51451); experiment: biochemical; details: read-out: %Ctrl @ 2000nM
[3] = biological target: BRAF(V600E) (Homo sapiens, UniProt P15056, V600E); experiment: biochemical; details: read-out: %Ctrl @ 2000nM
[4] = biological target: CDC2L5 (Homo sapiens, UniProt Q14004); experiment: biochemical; details: read-out: %Ctrl @ 2000nM
[5] = biological target: CTK (Homo sapiens, UniProt P42679); experiment: biochemical; details: read-out: %Ctrl @ 2000nM
[6] = biological target: DAPK1 (Homo sapiens, UniProt P53355); experiment: biochemical; details: read-out: %Ctrl @ 2000nM
[7] = biological target: DMPK (Homo sapiens, UniProt Q09013); experiment: biochemical; details: read-out: %Ctrl @ 2000nM
[8] = biological target: DYRK1A (Homo sapiens, UniProt Q13627); experiment: biochemical; details: read-out: %Ctrl @ 2000nM
[9] = biological target: EGFR(L747-S752del, P753S) (Homo sapiens, UniProt P00533, DEL747-752/P753S); experiment: biochemical; details: read-out: %Ctrl @ 2000nM
[10] = biological target: ERBB2 (Homo sapiens, UniProt P04626); experiment: biochemical; details: read-out: %Ctrl @ 2000nM
[11] = biological target: ERBB3 (Homo sapiens, UniProt P21860); experiment: biochemical; details: read-out: %Ctrl @ 2000nM
[12] = biological target: ERK5 (Homo sapiens, UniProt Q13164); experiment: biochemical; details: read-out: %Ctrl @ 2000nM
[13] = biological target: FGFR3 (Homo sapiens, UniProt P22607); experiment: biochemical; details: read-out: %Ctrl @ 2000nM
[14] = biological target: FLT3(D835V) (Homo sapiens, UniProt P36888, D835V); experiment: biochemical; details: read-out: %Ctrl @ 2000nM
[15] = biological target: GRK3 (Homo sapiens, UniProt P35626); experiment: biochemical; details: read-out: %Ctrl @ 2000nM
[16] = biological target: JAK1(JH1domain-catalytic) (Homo sapiens, UniProt P23458); experiment: biochemical; details: read-out: %Ctrl @ 2000nM
[17] = biological target: KIT(L576P) (Homo sapiens, UniProt P10721, L576P); experiment: biochemical; details: read-out: %Ctrl @ 2000nM
[18] = biological target: LRRK2(G2019S) (Homo sapiens, UniProt Q5S007, G2019S); experiment: biochemical; details: read-out: %Ctrl @ 2000nM
[19] = biological target: LTK (Homo sapiens, UniProt P29376); experiment: biochemical; details: read-out: %Ctrl @ 2000nM
[20] = biological target: MAP3K3 (Homo sapiens, UniProt Q99759); experiment: biochemical; details: read-out: %Ctrl @ 2000nM
[21] = biological target: MAP4K3 (Homo sapiens, UniProt Q8IVH8); experiment: biochemical; details: read-out: %Ctrl @ 2000nM
[22] = biological target: MAPKAPK2 (Homo sapiens, UniProt P49137); experiment: biochemical; details: read-out: %Ctrl @ 2000nM
[23] = biological target: MARK1 (Homo sapiens, UniProt Q9P0L2); experiment: biochemical; details: read-out: %Ctrl @ 2000nM
[24] = biological target: MERTK (Homo sapiens, UniProt Q12866); experiment: biochemical; details: read-out: %Ctrl @ 2000nM
[25] = biological target: MET (Homo sapiens, UniProt P08581); experiment: biochemical; details: read-out: %Ctrl @ 2000nM
[26] = biological target: MLK1 (Homo sapiens, UniProt P80192); experiment: biochemical; details: read-out: %Ctrl @ 2000nM
[27] = biological target: NEK9 (Homo sapiens, UniProt Q8TD19); experiment: biochemical; details: read-out: %Ctrl @ 2000nM
[28] = biological target: PFCDPK1(P.falciparum) (Plasmodium falciparum, UniProt P62344); experiment: biochemical; details: read-out: %Ctrl @ 2000nM
[29] = biological target: PHKG1 (Homo sapiens, UniProt Q16816); experiment: biochemical; details: read-out: %Ctrl @ 2000nM
[30] = biological target: PIK3CA(E545A) (Homo sapiens, UniProt P42336, E545A); experiment: biochemical; details: read-out: %Ctrl @ 2000nM
[31] = biological target: PIK3CA(E545K) (Homo sapiens, UniProt P42336, E545K); experiment: biochemical; details: read-out: %Ctrl @ 2000nM
[32] = biological target: PIM3 (Homo sapiens, UniProt Q86V86); experiment: biochemical; details: read-out: %Ctrl @ 2000nM
[33] = biological target: PRKCD (Homo sapiens, UniProt Q05655); experiment: biochemical; details: read-out: %Ctrl @ 2000nM
[34] = biological target: RSK3(Kin.Dom.1-N-terminal) (Homo sapiens, UniProt Q15349); experiment: biochemical; details: read-out: %Ctrl @ 2000nM
[35] = biological target: SgK110 (Homo sapiens, UniProt P0C264); experiment: biochemical; details: read-out: %Ctrl @ 2000nM
[36] = biological target: SGK2 (Homo sapiens, UniProt Q9HBY8); experiment: biochemical; details: read-out: %Ctrl @ 2000nM
[37] = biological target: SGK3 (Homo sapiens, UniProt Q96BR1); experiment: biochemical; details: read-out: %Ctrl @ 2000nM
[38] = biological target: STK39 (Homo sapiens, UniProt Q9UEW8); experiment: biochemical; details: read-out: %Ctrl @ 2000nM
[39] = biological target: TGFBR1 (Homo sapiens, UniProt P36897); experiment: biochemical; details: read-out: %Ctrl @ 2000nM
[40] = biological target: TYK2(JH1domain-catalytic) (Homo sapiens, UniProt P29597); experiment: biochemical; details: read-out: %Ctrl @ 2000nM
[41] = biological target: YSK1 (Homo sapiens, UniProt O00506); experiment: biochemical; details: read-out: %Ctrl @ 2000nM

Chain of TYK2(JH1domain-catalytic) (P29597 897-1176 limits assumed): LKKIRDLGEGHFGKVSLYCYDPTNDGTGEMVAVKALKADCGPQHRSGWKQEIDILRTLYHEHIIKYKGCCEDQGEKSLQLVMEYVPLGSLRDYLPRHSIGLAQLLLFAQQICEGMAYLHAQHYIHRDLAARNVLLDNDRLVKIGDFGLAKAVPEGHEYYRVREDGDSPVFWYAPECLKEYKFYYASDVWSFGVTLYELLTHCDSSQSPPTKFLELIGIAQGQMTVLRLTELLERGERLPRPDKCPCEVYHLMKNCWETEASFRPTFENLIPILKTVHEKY
Chain of BLK (P51451 whole entry): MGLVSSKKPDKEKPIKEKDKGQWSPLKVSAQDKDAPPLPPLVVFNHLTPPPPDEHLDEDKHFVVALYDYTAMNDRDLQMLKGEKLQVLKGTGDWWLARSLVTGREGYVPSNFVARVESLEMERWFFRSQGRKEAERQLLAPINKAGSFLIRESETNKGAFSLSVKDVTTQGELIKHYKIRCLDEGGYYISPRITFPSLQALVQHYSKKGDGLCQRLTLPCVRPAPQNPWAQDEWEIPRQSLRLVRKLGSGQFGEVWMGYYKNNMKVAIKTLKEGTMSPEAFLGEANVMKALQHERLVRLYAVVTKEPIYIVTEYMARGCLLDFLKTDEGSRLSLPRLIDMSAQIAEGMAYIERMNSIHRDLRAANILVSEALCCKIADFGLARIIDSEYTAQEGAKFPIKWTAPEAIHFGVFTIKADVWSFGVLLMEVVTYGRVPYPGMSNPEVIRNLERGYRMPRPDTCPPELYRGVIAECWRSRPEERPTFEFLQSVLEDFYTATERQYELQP
Chain of PIK3CA(E545K) (P42336 whole entry E545K): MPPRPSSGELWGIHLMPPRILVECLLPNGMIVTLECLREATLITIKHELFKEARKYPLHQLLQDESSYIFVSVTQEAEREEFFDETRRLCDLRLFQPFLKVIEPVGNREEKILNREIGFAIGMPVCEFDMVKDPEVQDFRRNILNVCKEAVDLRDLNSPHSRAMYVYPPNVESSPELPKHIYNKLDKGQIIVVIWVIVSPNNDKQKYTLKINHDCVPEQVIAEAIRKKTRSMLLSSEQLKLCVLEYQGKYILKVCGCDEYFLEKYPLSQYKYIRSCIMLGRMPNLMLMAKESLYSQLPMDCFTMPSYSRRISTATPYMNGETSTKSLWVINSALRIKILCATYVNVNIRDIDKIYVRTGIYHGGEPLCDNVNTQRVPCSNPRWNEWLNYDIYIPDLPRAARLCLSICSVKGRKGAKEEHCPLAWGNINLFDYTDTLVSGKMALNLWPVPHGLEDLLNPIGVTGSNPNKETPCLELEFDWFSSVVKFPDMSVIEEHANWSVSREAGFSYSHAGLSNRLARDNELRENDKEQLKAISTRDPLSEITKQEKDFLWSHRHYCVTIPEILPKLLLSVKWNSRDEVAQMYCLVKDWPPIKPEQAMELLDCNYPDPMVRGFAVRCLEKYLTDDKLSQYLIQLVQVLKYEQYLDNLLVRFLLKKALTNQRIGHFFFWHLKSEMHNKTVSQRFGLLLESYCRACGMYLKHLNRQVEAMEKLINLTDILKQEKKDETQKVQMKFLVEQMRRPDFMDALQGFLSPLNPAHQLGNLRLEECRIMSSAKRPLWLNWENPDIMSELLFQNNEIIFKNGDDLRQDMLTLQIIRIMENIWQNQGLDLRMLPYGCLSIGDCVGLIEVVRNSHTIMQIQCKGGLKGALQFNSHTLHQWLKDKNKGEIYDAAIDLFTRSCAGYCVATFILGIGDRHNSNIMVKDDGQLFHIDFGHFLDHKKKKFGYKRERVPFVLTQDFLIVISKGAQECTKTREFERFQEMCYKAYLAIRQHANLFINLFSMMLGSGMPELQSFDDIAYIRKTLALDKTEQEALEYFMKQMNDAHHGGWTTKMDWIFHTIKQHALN
Chain of PFCDPK1(P.falciparum) (P62344 whole entry): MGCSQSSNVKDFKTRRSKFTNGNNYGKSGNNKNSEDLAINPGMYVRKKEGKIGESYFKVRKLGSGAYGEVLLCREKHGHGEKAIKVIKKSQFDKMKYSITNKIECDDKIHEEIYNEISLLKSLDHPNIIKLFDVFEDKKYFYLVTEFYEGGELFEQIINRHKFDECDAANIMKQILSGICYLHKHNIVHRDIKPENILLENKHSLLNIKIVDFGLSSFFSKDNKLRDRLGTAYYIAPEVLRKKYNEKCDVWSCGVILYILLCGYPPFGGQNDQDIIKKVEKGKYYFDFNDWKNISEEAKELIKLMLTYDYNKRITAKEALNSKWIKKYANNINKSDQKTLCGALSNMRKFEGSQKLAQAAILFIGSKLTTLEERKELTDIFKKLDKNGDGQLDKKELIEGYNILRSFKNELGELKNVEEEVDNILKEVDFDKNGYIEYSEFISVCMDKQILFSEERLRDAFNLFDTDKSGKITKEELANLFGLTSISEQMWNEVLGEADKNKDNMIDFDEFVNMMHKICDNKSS
Chain of MET (P08581 25-1390): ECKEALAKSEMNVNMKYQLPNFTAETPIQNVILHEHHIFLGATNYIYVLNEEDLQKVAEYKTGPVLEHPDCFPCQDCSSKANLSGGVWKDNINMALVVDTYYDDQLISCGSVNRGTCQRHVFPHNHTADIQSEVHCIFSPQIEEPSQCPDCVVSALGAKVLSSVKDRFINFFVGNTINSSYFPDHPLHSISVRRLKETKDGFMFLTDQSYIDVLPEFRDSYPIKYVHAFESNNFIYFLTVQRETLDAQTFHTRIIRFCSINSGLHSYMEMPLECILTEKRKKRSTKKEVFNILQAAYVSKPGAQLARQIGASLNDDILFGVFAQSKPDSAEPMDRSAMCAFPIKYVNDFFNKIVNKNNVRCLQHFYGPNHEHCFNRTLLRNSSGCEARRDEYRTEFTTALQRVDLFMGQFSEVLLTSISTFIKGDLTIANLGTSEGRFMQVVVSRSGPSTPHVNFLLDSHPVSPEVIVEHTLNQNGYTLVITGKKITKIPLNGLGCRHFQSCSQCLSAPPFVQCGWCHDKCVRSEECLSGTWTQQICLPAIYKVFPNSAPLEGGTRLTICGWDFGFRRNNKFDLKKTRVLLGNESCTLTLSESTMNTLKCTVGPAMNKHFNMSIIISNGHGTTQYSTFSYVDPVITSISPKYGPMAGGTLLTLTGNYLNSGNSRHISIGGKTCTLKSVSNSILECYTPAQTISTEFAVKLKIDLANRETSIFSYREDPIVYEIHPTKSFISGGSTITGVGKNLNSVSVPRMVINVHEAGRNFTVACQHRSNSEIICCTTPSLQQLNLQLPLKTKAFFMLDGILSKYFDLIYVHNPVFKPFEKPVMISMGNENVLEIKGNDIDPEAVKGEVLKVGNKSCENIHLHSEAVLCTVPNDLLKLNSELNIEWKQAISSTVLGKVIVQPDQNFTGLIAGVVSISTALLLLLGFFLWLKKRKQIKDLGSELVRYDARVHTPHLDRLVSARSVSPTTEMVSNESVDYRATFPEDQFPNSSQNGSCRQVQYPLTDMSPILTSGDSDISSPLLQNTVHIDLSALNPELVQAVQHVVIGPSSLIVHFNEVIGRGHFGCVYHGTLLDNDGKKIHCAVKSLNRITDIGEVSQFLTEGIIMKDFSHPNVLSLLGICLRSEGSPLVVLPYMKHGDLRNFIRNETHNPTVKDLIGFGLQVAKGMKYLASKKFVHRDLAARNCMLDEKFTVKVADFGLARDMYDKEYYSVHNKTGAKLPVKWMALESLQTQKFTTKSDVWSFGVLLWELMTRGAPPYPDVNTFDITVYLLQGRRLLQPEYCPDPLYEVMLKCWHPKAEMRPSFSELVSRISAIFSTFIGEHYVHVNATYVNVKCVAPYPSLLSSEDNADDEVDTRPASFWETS
Chain of BRAF(V600E) (P15056 whole entry V600E): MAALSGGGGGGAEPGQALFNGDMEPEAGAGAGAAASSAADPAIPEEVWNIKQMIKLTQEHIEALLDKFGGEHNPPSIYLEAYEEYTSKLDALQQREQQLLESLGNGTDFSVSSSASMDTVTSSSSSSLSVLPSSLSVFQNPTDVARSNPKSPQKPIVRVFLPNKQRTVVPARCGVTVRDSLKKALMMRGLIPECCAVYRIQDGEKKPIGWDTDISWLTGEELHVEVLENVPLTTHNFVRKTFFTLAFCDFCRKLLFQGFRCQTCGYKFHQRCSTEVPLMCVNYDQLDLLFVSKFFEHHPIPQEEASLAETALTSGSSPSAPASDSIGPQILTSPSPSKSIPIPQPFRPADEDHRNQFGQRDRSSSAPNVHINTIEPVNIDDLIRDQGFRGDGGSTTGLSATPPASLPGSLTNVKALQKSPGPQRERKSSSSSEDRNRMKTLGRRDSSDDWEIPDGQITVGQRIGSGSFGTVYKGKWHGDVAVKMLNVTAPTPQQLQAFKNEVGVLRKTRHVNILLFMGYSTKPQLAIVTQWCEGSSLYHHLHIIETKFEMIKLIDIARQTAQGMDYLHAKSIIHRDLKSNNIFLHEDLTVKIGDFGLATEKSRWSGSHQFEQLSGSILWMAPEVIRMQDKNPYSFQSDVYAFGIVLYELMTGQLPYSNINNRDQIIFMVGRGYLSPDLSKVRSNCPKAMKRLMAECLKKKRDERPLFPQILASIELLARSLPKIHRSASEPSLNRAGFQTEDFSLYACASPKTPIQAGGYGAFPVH
Chain of PIK3CA(E545A) (P42336 whole entry E545A): as the sequence (P42336 whole entry E545K) above, with K545A counted along it

SMILES: CC(C)COC(=O)c1[nH]c2ccc(F)cc2c1-c1cn(CC2CCN(CCNS(=O)(=O)c3ccc(CC(C)C)cc3)CC2)nn1 [AB668, isobutyl 5-fluoro-3-(1-((1-(2-((4-isobutylphenyl)sulfonamido)ethyl)piperidin-4-yl)methyl)-1H-1,2,3-triazol-4-yl)-1H-indole-2-carboxylate]
- cell viability of tumor slices [1]: significantly reduced cell viability
- remaining activity at 2 µM [2]: 100%
- remaining activity at 2 µM [3]: 100%
- remaining activity at 2 µM [4]: 98%
- remaining activity at 2 µM [5]: 82%
- remaining activity at 2 µM [6]: 100%
- remaining activity at 2 µM [7]: 90%
- remaining activity at 2 µM [8]: 99%
- remaining activity at 2 µM [9]: 98%
- remaining activity at 2 µM [10]: 100%
- remaining activity at 2 µM [11]: 94%
- remaining activity at 2 µM [12]: 88%
- remaining activity at 2 µM [13]: 89%
- remaining activity at 2 µM [14]: 94%
- remaining activity at 2 µM [15]: 89%
- remaining activity at 2 µM [16]: 75%
- remaining activity at 2 µM [17]: 91%
- remaining activity at 2 µM [18]: 86%
- remaining activity at 2 µM [19]: 94%
- remaining activity at 2 µM [20]: 100%
- remaining activity at 2 µM [21]: 82%
- remaining activity at 2 µM [22]: 92%
- remaining activity at 2 µM [23]: 79%
- remaining activity at 2 µM [24]: 96%
- remaining activity at 2 µM [25]: 100%
- remaining activity at 2 µM [26]: 96%
- remaining activity at 2 µM [27]: 94%
- remaining activity at 2 µM [28]: 81%
- remaining activity at 2 µM [29]: 76%
- remaining activity at 2 µM [30]: 100%
- remaining activity at 2 µM [31]: 88%
- remaining activity at 2 µM [32]: 85%
- remaining activity at 2 µM [33]: 91%
- remaining activity at 2 µM [34]: 93%
- remaining activity at 2 µM [35]: 71%
- remaining activity at 2 µM [36]: 98%
- remaining activity at 2 µM [37]: 99%
- remaining activity at 2 µM [38]: 90%
- remaining activity at 2 µM [39]: 84%
- remaining activity at 2 µM [40]: 85%
- remaining activity at 2 µM [41]: 82%
